Data from ChEMBL document CHEMBL1158311, “Fusaricide, a new cytotoxic N-hydroxypyridone from Fusarium sp” (J Nat Prod, 1996).
In brackets after ≈: the same amount, converted by molar mass.

Tests used:
M109 = experiment: Antitumor activity against mouse M109 cells; type: functional
Candida albicans = experiment: Antifungal activity against Candida albicans; type: functional
[1] = Inhibition of HIV1 recombinant Rev protein expressed in Escherichia coli binding to HIV1 Rre RNA by liquid scintillation assay; set-up: species or system Human immunodeficiency virus 1
[2] = Ratio of IC50 for R17 activity to IC50 for HIV1 Rev activity
Penicillium chrysogenum = experiment: Antifungal activity against Penicillium chrysogenum; type: functional
[3] = Inhibition of R17 coat protein binding to [33P]labeled R17 operator RNA

- MIC (Candida albicans): 16 µg/mL (≈ 54.9 µM)
- IC50 [1]: 40 µg/mL
- Ratio IC50 [2]: < 2
- MIC (Penicillium chrysogenum): 8 µg/mL (≈ 27.5 µM)
- IC50 [3]: 75 µg/mL (≈ 257 µM)
Structure (SMILES): CC[C@@H]1Oc2ccn(O)c(=O)c2[C@H]2[C@H](C)C[C@H](C)C[C@]12C [FUSARICIDE]
- Activity (M109): 1 µg/mL
